Test results from ChEMBL document CHEMBL1126081, “Active conformation of a tumor promoter, teleocidin. A molecular dynamics study” (1992).

Tested on: HL-60
Test: Dose inducing HL-60 cell adhesion related to skin tumor promotion.
Type: functional, Homo sapiens

How did the ED50 turn out when `C[C@H]1C(=O)N[C@H](CO)Cc2c[nH]c3cccc(c23)N1C` (racemic) was run?
The ED50 was 3.7e-06 M l-1.

Which ED50 does the source give for `CN1c2cccc3[nH]cc(c23)C[C@@H](CO)NC(=O)[C@@H]1C(C)(C)C` (racemic) here?
Its ED50 is 1.1e-07 M l-1.

For `CN1CC(=O)N[C@H](CO)Cc2c[nH]c3cccc1c23` (racemic), which ED50 is on record?
Its ED50 is 3.9e-05 M l-1.
